{"source": "patent US20240124503A1", "about": "“HETEROAROMATIC PHOSPHONIUM SALTS AND THEIR USE TREATING CANCER” (FLORATEK PHARMA S.A., priority 2021, published 2024)", "key": {"[1]": {"tested_on": "brain cancer cell", "assay": "Cell viability, brain cancer cells (panel statement)", "assay_type": "cell-based", "settings": "text summary of Tables 3A-3C; read-out: IC50, brain cancer cell growth", "method": "(§1) Antitumor activity of the compounds and doxorubicin as a positive control was assessed by using the CellTiter-Blue Cell Viability Assay (Promega, #G8082) or CellTiter-Glow® Luminescent Cell Viability assay (Promega #G7572) according to the manufacturer's instructions. The compounds were tested at 5 or 6 concentrations in half-log increments (highest concentration 30 μM or 100 μM) in duplicate or triplicate well conditions.\n(§2) Tumor cells were grown at 37° C. in a humidified atmosphere with 5% CO2 in RPMI 1640 or DMEM medium, supplemented with 10% (v/v) fetal calf serum and 50 μg/ml gentamicin for up to 20 passages, and were passaged once or twice weekly. Cells were harvested using TrypLE or PBS buffer containing 1 mM EDTA, and the percentage of viable cells was determined using a CASY Model TI cell counter (OMNI Life Science). Cells were harvested from exponential phase cultures, counted and plated in 96 well flat-bottom microtiter plates at a cell density depending on the cell line's growth rate (4,000-20,000 cells/well depending on the cell line's growth rate, up to 60,000 for hematological cancer cell lines) in RPMI 1640 or DMEM medium supplemented with 10% (v/v) fetal calf serum and 50 μg/ml gentamicin (140 μl/well). […] Viability of cells was quantified by the CellTiter-Blue® cell viability assay (Promega G8081) or CellTiter-Glow® Luminescent Cell Viability assay (Promega #G7572). […]"}, "[2]": {"tested_on": "SH-SY-5Y", "assay": "Cell viability assay, SH-SY-5Y", "assay_type": "cell-based", "settings": "Homo sapiens, SH-SY5Y; brain carcinoma cell line SH-SY-5Y", "method": "as §1, §2"}, "[3]": {"molecular_target": "T1, ABL1-nonphosphorylated (Homo sapiens, UniProt P00519)", "T1 construct": "purchased Eurofins (KINOMEscan); host or cells: E. coli BL21-derived host (T7 phage) or HEK-293", "assay": "KINOMEscan competition binding, ABL1-nonphosphorylated", "method": "(§3) Selected compounds were screened for kinase inhibition using the KINOMEscan™ assay (Eurofins) which is based on a competition binding assay that quantitatively measures the ability of a compound to compete with an immobilized, active-site directed ligand. The assay was performed by combining three components: DNA-tagged kinase; immobilized ligand; and the test compound. The ability of the test compound to compete with the immobilized ligand was measured via quantitative PCR of the DNA tag.\n(§4) Kinase-tagged T7 phage strains were prepared in an E. coli host derived from the BL21 strain. E. coli were grown to log-phase and infected with T7 phage and incubated with shaking at 32° C. until lysis. The lysates were centrifuged and filtered to remove cell debris. The remaining kinases were produced in HEK-293 cells and subsequently tagged with DNA for qPCR detection. Streptavidin-coated magnetic beads were treated with biotinylated small molecule ligands for 30 minutes at room temperature to generate affinity resins for kinase assays. […] Kds were determined using an 11-point 3-fold compound dilution series with three DMSO control points. […] The kinase concentration in the eluates was measured by qPCR. […]\n(§5) Binding constants (Kds) were calculated with a standard dose-response curve using the Hill equation: Response=Background+[Signal−Background/1+(Kd^Hill Slope/Dose^Hill Slope)] […]"}, "[4]": {"tested_on": "T47D", "assay": "Cell viability assay, T47D", "assay_type": "cell-based", "settings": "Homo sapiens; breast carcinoma cell line T47D", "method": "as §1, §2"}, "[5]": {"molecular_target": "T2, TIE2 (Homo sapiens, UniProt Q02763)", "T2 construct": "purchased Eurofins (KINOMEscan); host or cells: E. coli BL21-derived host (T7 phage) or HEK-293", "T2 sequence (Q02763 23-1124)": "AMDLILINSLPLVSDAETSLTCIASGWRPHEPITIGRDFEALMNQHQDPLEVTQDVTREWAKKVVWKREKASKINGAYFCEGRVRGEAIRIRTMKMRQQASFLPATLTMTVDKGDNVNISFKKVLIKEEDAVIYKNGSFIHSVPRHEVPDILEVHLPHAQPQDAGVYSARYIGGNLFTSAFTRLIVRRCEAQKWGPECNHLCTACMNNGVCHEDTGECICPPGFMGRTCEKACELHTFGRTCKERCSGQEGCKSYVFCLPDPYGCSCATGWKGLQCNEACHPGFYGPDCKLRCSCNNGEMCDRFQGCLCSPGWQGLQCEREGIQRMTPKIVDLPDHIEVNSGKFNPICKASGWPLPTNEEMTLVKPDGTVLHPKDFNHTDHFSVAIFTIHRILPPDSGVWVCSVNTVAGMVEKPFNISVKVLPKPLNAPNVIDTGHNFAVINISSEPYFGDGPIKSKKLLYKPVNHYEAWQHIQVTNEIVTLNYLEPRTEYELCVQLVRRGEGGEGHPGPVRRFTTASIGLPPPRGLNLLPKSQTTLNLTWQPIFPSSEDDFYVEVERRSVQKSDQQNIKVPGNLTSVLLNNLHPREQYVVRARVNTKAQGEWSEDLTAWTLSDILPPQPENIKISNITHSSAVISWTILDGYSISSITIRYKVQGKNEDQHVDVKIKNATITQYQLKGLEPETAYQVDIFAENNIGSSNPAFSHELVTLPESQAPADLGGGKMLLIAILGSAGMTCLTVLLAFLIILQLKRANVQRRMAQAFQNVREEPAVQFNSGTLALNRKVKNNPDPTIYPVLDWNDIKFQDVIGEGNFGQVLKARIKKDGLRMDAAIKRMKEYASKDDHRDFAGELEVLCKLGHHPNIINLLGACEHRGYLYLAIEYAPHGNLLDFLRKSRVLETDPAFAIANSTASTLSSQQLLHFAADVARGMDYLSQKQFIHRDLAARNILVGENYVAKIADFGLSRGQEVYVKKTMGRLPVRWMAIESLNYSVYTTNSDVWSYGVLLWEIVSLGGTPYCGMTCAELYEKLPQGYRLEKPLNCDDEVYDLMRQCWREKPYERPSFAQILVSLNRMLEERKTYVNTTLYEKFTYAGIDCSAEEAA", "assay": "KINOMEscan competition binding, TIE2", "method": "as §3, §4, §5"}, "[6]": {"tested_on": "BT-474", "assay": "Cell viability assay, BT-474", "assay_type": "cell-based", "settings": "Homo sapiens; breast carcinoma cell line BT-474", "method": "as §1, §2"}, "[7]": {"tested_on": "CALU-6", "assay": "Cell viability assay, CALU-6", "assay_type": "cell-based", "settings": "Homo sapiens; lung carcinoma cell line CALU-6", "method": "as §1, §2"}}, "data": [{"compound": "COc1c(O)ccc2c(=O)c(O)c(-c3ccc(CCCC[P+](c4ccccc4)(c4ccccc4)c4ccccc4)cc3)oc12", "note": "[SND190, (4-(4-(3,7-Dihydroxy-8-methoxy-4-oxo-4H1-chromen-2-yl)phenyl)butyl)triphenylphosphonium bromide]", "values": [{"measurement": "IC50", "setting": "[1]", "result": "< 20", "unit": "µM"}, {"measurement": "IC50", "setting": "[2]", "result": 2.6, "unit": "µM"}, {"measurement": "Kd", "setting": "[3]", "result": 0.46, "unit": "µM"}, {"measurement": "IC50", "setting": "[4]", "result": 1.3, "unit": "µM"}, {"measurement": "Kd", "setting": "[5]", "result": 0.04, "unit": "µM"}, {"measurement": "IC50", "setting": "[6]", "result": 1.9, "unit": "µM"}, {"measurement": "IC50", "setting": "[7]", "result": 2.39, "unit": "µM"}]}]}
